Data taken from PubChem BioAssay (NCI).
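The compound was tested at five concentrations on cells cultured in 96-well plates, with a 48-hour exposure period. TGI: total growth inhibition.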

Key:
Assay in all cases: inhibition of tumour cell growth, NCI panel, 48 h
[1] = test system: MDA-MB-435
[2] = test system: MDA-N
[3] = test system: DU-145 prostate
[4] = test system: MCF7 breast
[5] = test system: CCRF-CEM leukemia
[6] = test system: OVCAR-5 ovarian
[7] = test system: OVCAR-3 ovarian
[8] = test system: SW-620 colon
[9] = test system: SNB-75 CNS
[10] = test system: HCT-15 colon
[11] = test system: UO-31 renal
[12] = test system: 786-0 renal
[13] = test system: EKVX NSCLC
[14] = test system: SF-539 CNS
[15] = test system: NCI-H23 lung
[16] = test system: U251 CNS
[17] = test system: HT29 colon
[18] = test system: SK-MEL-28 melanoma
[19] = test system: COLO 205 colon
[20] = test system: SK-MEL-2 melanoma
[21] = test system: ACHN renal
[22] = test system: CAKI-1 renal
[23] = test system: HOP-62 NSCLC
[24] = test system: NCI-H226 lung
[25] = test system: A498 renal
[26] = test system: SK-MEL-5 melanoma
[27] = test system: HCC-2998 colon
[28] = test system: HL-60(TB) leukemia
[29] = test system: KM12 colon
[30] = test system: HCT-116 colon
[31] = test system: SR leukemia
[32] = test system: OVCAR-8 ovarian
[33] = test system: NCI-H522 lung
[34] = test system: RPMI-8226 leukemia
[35] = test system: HOP-92 NSCLC
[36] = test system: SNB-19 CNS
[37] = test system: MOLT-4 leukemia
[38] = test system: UACC-257 melanoma
[39] = test system: T-47D breast
[40] = test system: MALME-3M melanoma
[41] = test system: SF-268 CNS
[42] = test system: SK-OV-3 ovarian
[43] = test system: M14 melanoma
[44] = test system: RXF 393 renal
[45] = test system: A549 NSCLC
[46] = test system: BT-549 breast
[47] = test system: IGROV1 ovarian
[48] = test system: NCI/ADR-RES ovarian
[49] = test system: SF-295 CNS
[50] = test system: TK-10 renal
[51] = test system: HS 578T breast
[52] = test system: SN12C renal
[53] = test system: MDA-MB-231 breast
[54] = test system: K-562 leukemia
[55] = test system: LOX IMVI melanoma
[56] = test system: UACC-62 melanoma
[57] = test system: PC-3 prostate
[58] = test system: OVCAR-4 ovarian
[59] = test system: NCI-H460 lung

Measured: TGI

Cn1c2ccccc2c2c(=O)[nH]c(=O)[nH]c21
not listed: [57] | [58] | [59]
> 100 µM: all other assays above

CC1(CCCO)CCCCCCCCCC(C)(CCCO)C1=O (configuration not stated)
not listed: [14] | [31] | [50]
> 100 µM: all other assays above
